From patent EP1949908A1, “Combined use of derivatives of GLP-1 analogs and PPAR ligands” (NOVO NORDISK A/S, priority 2001, dated 2002)

Test system: male ZDF rat
Experiment: Four weeks treatment of overtly diabetic male ZDF rats: HbA1c and 24-hour glucose profile
Format: in vivo
Details: mean±SEM, n=10, propionic acid compound 1 mg/kg oral gavage once daily, GLP-1 derivative 50 µg/kg subcutaneously twice daily
Procedure: Ninety male ZDF rats aged 15-16 weeks were used in the study. Before treatment start, measurements of glucose and HbA1c were performed. All animals were overtly diabetic at the beginning of the study. Animals were allocated into the following 4 treatment groups:
(-)-2-Ethoxy-3-(4-(2-phenoxazin-10-yl-ethoxy)-phenyl)-propionic acid and Vehicle-1 were administered by oral gavage once daily at approx. 07:30. Arg^34, Lys^26(N^ε-(γ-Glu(N^α-hexadecanoyl)))-GLP-1 (7-37) and Vehicle-2 were administered subcutaneously twice daily at approx. 07:30 and 14:30.
After four weeks treatment, HbA1c was measured and 24-hour glucose profiles were assessed.
Delta HbA1c refers to the numerical difference between the measurement after treatment and the measurement before treatment. Glucose24hAUC refers to the total area under the glucose concentration curve during the 24-hour period. A two-way analysis of variance was performed for each parameter and the significance of the interaction term evaluated.

CCOC(Cc1ccc(OCCN2c3ccccc3Oc3ccccc32)cc1)C(=O)O (single isomer, unassigned; (-)) [(-)-2-ethoxy-3-(4-(2-phenoxazin-10-yl-ethoxy)-phenyl)-propionic acid]
Delta HbA1c (after four weeks treatment minus before treatment): -0.81±0.36 % points | Glucose24hAUC (total area under the glucose concentration curve during 24-hour period after four weeks treatment): 456 ± 38 mM·h
